Concentration data for four compounds are collected here from PMC12560828, “Chemical structure drives developmental toxicity of alkyl-substituted naphthalenes in zebrafish” (Environment international, 2025).

This data set in a line: Body burden measurement (GC-MS/MS) and concentration uptake ratio, vial exposure. The format is in vivo, Danio rerio. The following applies: zebrafish (Danio rerio), whole embryos (32 pooled, ethyl acetate extract), other: waterborne exposure of embryos in sealed vials, 20 μM exposure, 32 pooled embryos, 0.5 mL extract, single replicates, read-out: measured concentration in embryo extract. Here is the method: Body burden was measured for exposure to five chemicals at two timepoints: 24 and 48 hpf. […] The exposure concentration was chosen as it was the maximum possible concentration that ensured enough viable animals for collection at 48 hpf and allowed direct comparison of chemical uptake at the same exposure concentration.
Chemicals were exposed at 20 μM following the exposure procedure detailed in section 1.3, 24 vials per chemical. At 24 hpf, embryos were pooled in groups of 32 embryos (combining embryos from 4 vials) into 1.5 mL polypropylene RINO-safe lock tubes (n = 3 per chemical treatment, n = 3 per control). Tubes were briefly placed on ice to reduce embryo movement (<1 min); the remaining medium was removed; the tube was then flash frozen in liquid nitrogen and stored at −20 °C until extraction. Embryos in the remaining vials were plated as previously described in section 1.3 until collection at 48 hpf following the same procedure as 24 hpf collections (n = 3 per chemical treatment, n = 1 control).
Tissue extraction was performed as previously reported ([Rude et al., 2025]). Each sample was spiked with 25 μL internal standard in ethyl acetate and 100 μL of 1 mm glass beads (Next Advance, Troy, NY United States) were added to the RINO-safe lock tubes containing thawed tissue samples and left on ice for 10 min 250 mg of Na2SO4 and 200 μL of ethyl acetate were added to each tube and vortexed. Tubes were homogenized at speed 8 for 6 min in a Bullet Blender (Next Advance, Troy, NY, United States). 300 μL of ethyl acetate was added to each tube and the homogenization step was repeated until no pieces of non-homogenized fish tissue remained. Samples were then centrifuged for 10 min at 4 °C, 1600g. Sample supernatant (0.5 mL) was collected into amber vials and stored at 4 °C until chemical analysis.
Samples were analyzed for quantitation and identification of 161 PAHs. The method was performed with an Agilent 7890 gas chromatograph (GC), with a 7000C triple quadrupole mass spectrometer (MS/MS) using an Agilent J&W PAH select (30 m × 250 μm × 0.15 μm GC column). Calibration for each analyte utilized at least a 4-point (range: 4–7, median 6 points, n = 161) curve with R^2 ≥ 0.99. Specific instrument conditions were modified from [Anderson et al. (2015)] and are detailed in Table S3. GC–MS/MS data was analyzed using MassHunter Quantitative Analysis v.B.06.00 SP1 build 6.0.388.1 software (Agilent Corp. Wilmington,DE) ([Anderson et al., 2015]). Dynamic muti-reaction monitoring mode was used during analyses, and all PAHs were identified using analytical standards obtained from multiple sources (Table S1). Collison energies were optimized for each individual unsubstituted PAH, alkylation series (C1, C2, etc.), and when possible, specific alkylation group (i.e. methyl, ethyl, etc.).
Body burden concentrations based on average embryo wet weight at each timepoint were determined by the equation below. Total measured chemical was calculated from ng/mL concentrations times sample volume (0.5 mL). Bodyburdennmol/mgbw=total measured chemicalnmol/number of fish32×average body weightmg
Average body weights at 24 hpf and 48 hpf were assumed to be 0.31 mg and 0.26 mg, respectively as determined previously ([Rericha et al., 2024]). Statistical analysis to compare time points within chemicals was performed using a two-sided Student’s t-test (p-value ≤ 0.05). An ANOVA with a follow-up Dunn’s test was used to compare body burden between chemicals at 24 hpf (p-value ≤ 0.05). Body burden concentrations at 24 hpf were compared to the estimated percent effect of each measured chemical at the exposure concentration used for body burden analysis (20 μM). These estimates were made using the fitted concentration-response curves previously described in section 2.3.2.2.
Concentration uptake ratios between vial exposures and 96-well plate exposures were compared using a two-sided Student’s t-test, p-values ≤ 0.05 were considered significant. […]

In the case of `Cc1cccc2c(C)cccc12` [1,5-dimethylnaphthalene], the concentration at 24 hpf, 20 μM amounted to 29200 ng/mL and the concentration at 48 hpf, 20 μM was determined as 9160 ng/mL.
Turning to `Cc1ccc2cccc(C)c2c1` [1,7-dimethylnaphthalene], the concentration at 24 hpf, 20 μM was 34600 ng/mL and the concentration at 48 hpf, 20 μM was 11300 ng/mL.
Take `Cc1cc(C)c2c(C)cccc2c1` [2,4,5-trimethylnaphthalene]: the concentration at 24 hpf, 20 μM was 9620 ng/mL.
Take `Cc1ccc2ccc(C)cc2c1` [2,7-dimethylnaphthalene]: the concentration at 24 hpf, 20 μM worked out at 26500 ng/mL and the concentration at 48 hpf, 20 μM amounted to 8890 ng/mL.
